Reference: PubChem BioAssay (NCI)
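GI50 = concentration required for 50% inhibition of growth. TGI denotes the concentration required for complete inhibition of growth.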

Columns and labels:
Test in all cases: growth of human tumour cells (NCI), 384-well format
[1] = test system: A549 NSCLC
[2] = test system: MCF7 breast
[3] = test system: LOX IMVI melanoma
[4] = test system: UO-31 renal
[5] = test system: HT29 colon
[6] = test system: NCI-H23 lung
[7] = test system: OVCAR-4 ovarian
[8] = test system: HCT-15 colon
[9] = test system: CAKI-1 renal
[10] = test system: RPMI-8226 leukemia
[11] = test system: SNB-75 CNS
[12] = test system: HL-60(TB) leukemia
[13] = test system: OVCAR-8 ovarian
[14] = test system: UACC-257 melanoma
[15] = test system: HCT-116 colon
[16] = test system: M14 melanoma
[17] = test system: U251 glioblastoma
[18] = test system: A498 renal
[19] = test system: SF-295 CNS
[20] = test system: MDA-MB-468 breast
[21] = test system: BT-549 breast
[22] = test system: SK-OV-3 ovarian
[23] = test system: SF-539 CNS
[24] = test system: NCI/ADR-RES ovarian
[25] = test system: TK-10 renal
[26] = test system: RXF 393 renal
[27] = test system: IGROV1 ovarian
[28] = test system: MDA-MB-231 breast
[29] = test system: MALME-3M melanoma
[30] = test system: T-47D breast
[31] = test system: KM12 colon
[32] = test system: SN12C renal
[33] = test system: SR leukemia
[34] = test system: NCI-H522 lung
[35] = test system: SF-268 CNS
[36] = test system: ACHN renal
[37] = test system: DU-145 prostate
[38] = test system: SNB-19 CNS
[39] = test system: SW-620 colon
[40] = test system: PC-3 prostate
[41] = test system: NCI-H322M lung
[42] = test system: SK-MEL-28 melanoma
[43] = test system: OVCAR-3 ovarian
[44] = test system: HOP-92 NSCLC
[45] = test system: EKVX NSCLC
[46] = test system: UACC-62 melanoma
[47] = test system: OVCAR-5 ovarian
[48] = test system: HCC-2998 colon
[49] = test system: HOP-62 NSCLC
[50] = test system: CCRF-CEM leukemia
[51] = test system: MOLT-4 leukemia
[52] = test system: NCI-H226 lung
[53] = test system: SK-MEL-5 melanoma
[54] = test system: COLO 205 colon
[55] = test system: HS 578T breast
[56] = test system: NCI-H460 NSCLC
[57] = test system: 786-0 renal
[58] = test system: MDA-MB-435 melanoma
[59] = test system: K-562 leukemia

CN1CC[C@@H](NC(=O)Nc2ccc(C#N)cc2)C[C@@H]1c1nc2ccccc2[nH]1 showed a GI50 [1] of over 87.9 µM, a TGI [1] of over 100 µM and a GI50 [2] of over 72.1 µM. For the same molecule, the TGI [2] was over 100 µM, the GI50 [3] was over 100 µM and the TGI [3] was over 100 µM. For the same molecule, the GI50 [4] was over 88.5 µM, the TGI [4] was over 100 µM and the GI50 [5] was 69.3 µM. For the same molecule, the TGI [5] was over 100 µM, the GI50 [6] was over 75.2 µM and the TGI [6] was over 100 µM. For the same molecule, the GI50 [7] was 92.4 µM, the TGI [7] was over 100 µM and the GI50 [8] was over 87.8 µM. The TGI [8] was over 100 µM, the GI50 [9] was over 100 µM and the TGI [9] was over 100 µM. For the same molecule, the GI50 [10] was 54.2 µM, the TGI [10] was over 100 µM and the GI50 [11] was over 58.6 µM. For the same molecule, the TGI [11] was over 95.9 µM, the GI50 [12] was over 87.7 µM and the TGI [12] was over 100 µM. For the same molecule, the GI50 [13] was over 100 µM, the TGI [13] was over 100 µM and the GI50 [14] was over 89.3 µM. It also gave a TGI [14] of over 100 µM, a GI50 [15] of 61.2 µM and a TGI [15] of over 100 µM. It also gave a GI50 [16] of over 100 µM, a TGI [16] of over 100 µM and a GI50 [17] of over 100 µM. The TGI [17] was over 100 µM, the GI50 [18] was over 85.2 µM and the TGI [18] was over 100 µM. It also gave a GI50 [19] of over 80.7 µM, a TGI [19] of over 100 µM and a GI50 [20] of 32.9 µM. The TGI [20] was over 95.9 µM, the GI50 [21] was over 49.4 µM and the TGI [21] was over 93.7 µM. For the same molecule, the GI50 [22] was over 100 µM, the TGI [22] was over 100 µM and the GI50 [23] was over 100 µM. It also gave a TGI [23] of over 100 µM, a GI50 [24] of over 100 µM and a TGI [24] of over 100 µM. The GI50 [25] was over 100 µM, the TGI [25] was over 100 µM and the GI50 [26] was over 46.8 µM. It also gave a TGI [26] of over 86.7 µM, a GI50 [27] of 75.1 µM and a TGI [27] of over 100 µM. For the same molecule, the GI50 [28] was 61.4 µM, the TGI [28] was over 100 µM and the GI50 [29] was 24.4 µM. For the same molecule, the TGI [29] was over 61.4 µM, the GI50 [30] was 37.9 µM and the TGI [30] was over 100 µM. It also gave a GI50 [31] of over 100 µM, a TGI [31] of over 100 µM and a GI50 [32] of over 100 µM. For the same molecule, the TGI [32] was over 100 µM, the GI50 [33] was 23.4 µM and the TGI [33] was 65.2 µM. It also gave a GI50 [34] of over 79.8 µM, a TGI [34] of over 100 µM and a GI50 [35] of over 86.7 µM. It also gave a TGI [35] of over 100 µM, a GI50 [36] of over 84.7 µM and a TGI [36] of over 100 µM. It also gave a GI50 [37] of 73.8 µM, a TGI [37] of over 100 µM and a GI50 [38] of over 100 µM. For the same molecule, the TGI [38] was over 100 µM, the GI50 [39] was over 100 µM and the TGI [39] was over 100 µM. For the same molecule, the GI50 [40] was over 100 µM, the TGI [40] was over 100 µM and the GI50 [41] was over 100 µM. It also gave a TGI [41] of over 100 µM, a GI50 [42] of over 82.8 µM and a TGI [42] of over 100 µM. It also gave a GI50 [43] of over 67.4 µM, a TGI [43] of over 100 µM and a GI50 [44] of 39.5 µM. The TGI [44] was 97.4 µM, the GI50 [45] was over 93.7 µM and the TGI [45] was over 100 µM. It also gave a GI50 [46] of over 61.8 µM, a TGI [46] of over 100 µM and a GI50 [47] of over 87.8 µM. For the same molecule, the TGI [47] was over 100 µM, the GI50 [48] was 47.7 µM and the TGI [48] was over 100 µM. For the same molecule, the GI50 [49] was over 100 µM, the TGI [49] was over 100 µM and the GI50 [50] was 74.7 µM. The TGI [50] was over 100 µM, the GI50 [51] was 18.2 µM and the TGI [51] was 36.4 µM. It also gave a GI50 [52] of over 59.6 µM, a TGI [52] of over 100 µM and a GI50 [53] of 18.2 µM. The TGI [53] was over 100 µM, the GI50 [54] was over 85.1 µM and the TGI [54] was over 100 µM. The GI50 [55] was over 60 µM, the TGI [55] was over 100 µM and the GI50 [56] was over 100 µM. For the same molecule, the TGI [56] was over 100 µM, the GI50 [57] was 40.4 µM and the TGI [57] was over 100 µM. It also gave a GI50 [58] of over 100 µM and a TGI [58] of over 100 µM.

With Cc1csc(-c2nnc(Nc3ccc(Oc4ncccc4-c4ccnc(N)n4)cc3)c3ccccc23)c1 the GI50 [1] was under 0.01 µM, the TGI [1] was over 100 µM and the GI50 [2] was 0.547 µM. For the same molecule, the TGI [2] was 13.1 µM, the GI50 [3] was 0.187 µM and the TGI [3] was over 100 µM. For the same molecule, the GI50 [4] was 2.42 µM, the TGI [4] was over 100 µM and the GI50 [5] was 0.271 µM. The TGI [5] was 2.95 µM, the GI50 [6] was 1.2 µM and the TGI [6] was 16.3 µM. It also gave a GI50 [7] of 5.32 µM, a TGI [7] of over 100 µM and a GI50 [8] of 0.586 µM. For the same molecule, the TGI [8] was over 100 µM, the GI50 [9] was 0.682 µM and the TGI [9] was over 100 µM. It also gave a GI50 [10] of 0.0101 µM, a TGI [10] of 2.47 µM and a GI50 [11] of 5.92 µM. For the same molecule, the TGI [11] was over 100 µM, the GI50 [12] was under 0.01 µM and the TGI [12] was 1.11 µM. It also gave a GI50 [13] of 1.34 µM, a TGI [13] of over 100 µM and a GI50 [59] of 0.552 µM. For the same molecule, the TGI [59] was over 100 µM, the GI50 [14] was 1.48 µM and the TGI [14] was 43.2 µM. For the same molecule, the GI50 [15] was 0.0331 µM, the TGI [15] was over 100 µM and the GI50 [16] was 0.0995 µM. For the same molecule, the TGI [16] was 3.08 µM, the GI50 [17] was 2.91 µM and the TGI [17] was over 100 µM. It also gave a GI50 [18] of 0.253 µM, a TGI [18] of over 100 µM and a GI50 [19] of 0.0517 µM. It also gave a TGI [19] of over 100 µM, a GI50 [20] of under 0.01 µM and a TGI [20] of under 0.01 µM. The GI50 [21] was 0.191 µM, the TGI [21] was over 100 µM and the GI50 [22] was 3.82 µM. For the same molecule, the TGI [22] was over 100 µM, the GI50 [23] was 0.141 µM and the TGI [23] was over 100 µM. It also gave a GI50 [24] of 0.166 µM, a TGI [24] of over 100 µM and a GI50 [25] of 1.89 µM. For the same molecule, the TGI [25] was over 100 µM, the GI50 [26] was under 0.01 µM and the TGI [26] was 5.03 µM. For the same molecule, the GI50 [27] was 1.54 µM, the TGI [27] was over 100 µM and the GI50 [28] was 2.34 µM. It also gave a TGI [28] of over 100 µM, a GI50 [29] of 1.51 µM and a TGI [29] of 6.12 µM. It also gave a GI50 [30] of 1.44 µM, a TGI [30] of 4.88 µM and a GI50 [31] of 1.69 µM. The TGI [31] was over 100 µM, the GI50 [32] was 1.13 µM and the TGI [32] was over 100 µM. It also gave a GI50 [34] of 0.0121 µM, a TGI [34] of 4.59 µM and a GI50 [35] of under 0.01 µM. The TGI [35] was 0.0564 µM, the GI50 [36] was 0.878 µM and the TGI [36] was over 100 µM. For the same molecule, the GI50 [37] was 2.1 µM, the TGI [37] was over 100 µM and the GI50 [38] was 19.6 µM. It also gave a TGI [38] of over 100 µM, a GI50 [39] of 0.181 µM and a TGI [39] of 3.13 µM. For the same molecule, the GI50 [40] was 4.05 µM, the TGI [40] was over 100 µM and the GI50 [41] was 4.92 µM. It also gave a TGI [41] of over 100 µM, a GI50 [42] of 1.51 µM and a TGI [42] of 9.78 µM. It also gave a GI50 [43] of 0.0536 µM, a TGI [43] of over 100 µM and a GI50 [44] of 1.96 µM. It also gave a TGI [44] of 43.3 µM, a GI50 [45] of 0.918 µM and a TGI [45] of over 100 µM. It also gave a GI50 [46] of 0.202 µM, a TGI [46] of 5.22 µM and a GI50 [47] of 7.21 µM. It also gave a TGI [47] of over 100 µM, a GI50 [48] of 1.44 µM and a TGI [48] of 3.53 µM. The GI50 [49] was 0.0894 µM, the TGI [49] was over 100 µM and the GI50 [50] was under 0.01 µM. The TGI [50] was under 0.01 µM, the GI50 [51] was under 0.01 µM and the TGI [51] was under 0.01 µM. For the same molecule, the GI50 [52] was 3.25 µM, the TGI [52] was over 100 µM and the GI50 [53] was 0.976 µM. The TGI [53] was over 100 µM, the GI50 [54] was under 0.01 µM and the TGI [54] was under 0.01 µM. For the same molecule, the GI50 [55] was under 0.01 µM, the TGI [55] was 17.6 µM and the GI50 [56] was under 0.01 µM. The TGI [56] was 1.29 µM, the GI50 [57] was 2.71 µM and the TGI [57] was over 100 µM. The GI50 [58] was 1.81 µM and the TGI [58] was over 100 µM.
